# Assay results taken from PMC7659979, “Discovery and Evaluation of Enantiopure 9H-pyrimido[4,5-b]indoles as Nanomolar GSK-3β Inhibitors with Improved Metabolic Stability” (International Journal of Molecular Sciences, 2020).
# Test system: GSK3β activity (phospho-GSK3α/β) in neuronal SH-SY5Y cells
# Assay: Cellular GSK-3α/β inhibition by western blotting in SH-SY5Y cells
# Type: cell-based, human
# Conditions: 1 μM, 1 h of treatment
# Protocol: Initially, we determined the concentrations of (R)-28 not associated to neurotoxicity by the MTT assay. Therefore, concentrations of 1 and 5 µM were selected for the assays in SH-SY5Y cells, which were performed according to previously described protocols.
# 5. Investigation of Cellular GSK-3α/β Inhibition by (R)-28 and Its Neuroprotective Effects
# Human neuronal SH-SY5Y cells (Sigma Aldrich, St. Louis, MO, USA) were routinely grown in Dulbecco’s modified Eagle’s Medium supplemented with 10% fetal bovine serum, 2 mM L-glutamine, 50 U/mL penicillin and 50 µg/mL streptomycin at 37 °C in a humidified incubator with […]
# SH-SY5Y cells were seeded in a 96-well plate at 2 × 10^4 cells/well, incubated for 24 h and then treated with various concentrations (1.25–40 µM) of (R)-28 for 24 h. Cell viability, in terms of mitochondrial activity, was evaluated by MTT assay, as previously described.
# 5.3. Neuroprotective Activity toward H 2O2
# SH-SY5Y cells were seeded in a 96-well plate at 2 × 10^4 cells/well, incubated for 24 h and subsequently treated with (R)-28 (5 µM) and H 2O2 (100 µM) for 1 h. Then, cells were starved in complete medium for 22 h. The neuroprotective activity was measured by using the MTT assay as previously described . Data are expressed as a percentage of neurotoxicity versus untreated cells.
# 5.4. […]
structure (smiles),measurement,value
"CCC(=O)N1CCC[C@@H](N(C)c2ncnc3[nH]c4cc(Br)ccc4c23)C1 [Compound (R)-28, (R)-1-(3-((7-bromo-9H-pyrimido[4,5-b]indol-4-yl)(methyl)amino)piperidin-1-yl)propan-1-one]",active phospho-GSK3α/β (Tyr279/Tyr216),decrease
same,inactive phospho-GSK3α/β (Ser21/9),increase
